The source of these data is PubChem BioAssay AID505 (SGCOxCompounds, 2006).

This assay deals with Serine/threonine-protein kinase pim-2 (Homo sapiens) (UniProt Q9P1W9). In words: compound-induced PIM2 thermal stabilization – biophysical, human, melting temperature shift (AID 505). The note with it: Recombinant PIM2 thermal shift, Tm change, at 10 µM, buffer 10 mM HEPES, pH 7.5, with 50 µM L-Arg/L-Glu (1:1), hits give high values.

Values joined by “and” are separate entries in the source; they are usually repeats but may differ in a detail not shown here. Equal entries are not always repeated.

Chain of Serine/threonine-protein kinase pim-2 (Homo sapiens) (Q9P1W9 whole entry, looked up): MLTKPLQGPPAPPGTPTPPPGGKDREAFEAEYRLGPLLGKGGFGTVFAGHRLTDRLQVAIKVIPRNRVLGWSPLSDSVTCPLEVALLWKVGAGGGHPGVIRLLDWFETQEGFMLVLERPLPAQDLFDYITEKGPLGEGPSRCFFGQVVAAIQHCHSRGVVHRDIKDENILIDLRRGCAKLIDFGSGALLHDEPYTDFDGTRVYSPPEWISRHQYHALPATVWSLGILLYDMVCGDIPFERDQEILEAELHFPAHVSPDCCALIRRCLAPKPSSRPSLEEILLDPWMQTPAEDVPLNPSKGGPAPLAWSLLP

For the molecule `NCCCn1cc(C2=C(c3c[nH]c4ccccc34)C(=O)NC2=O)c2ccccc21`, where the note is “NaCl 150 mM”, the Tm shift is 5.63 Celsius.

As to `O=c1[nH]c(O)c2c1c1c3ccccc3nc1n1cncc21`, the Tm shift (NaCl 150 mM) is 8 Celsius.

On to `CC(=O)c1cccc(-c2cnc3ccc(N[C@H](CO)C(C)C)nn23)c1`, for which the Tm shift (NaCl 150 mM) was 3.77 Celsius.

`O=Nc1c(-c2c(O)[nH]c3ccc(S(O)(O)O)cc23)[nH]c2ccccc12`: the Tm shift (NaCl 150 mM) was 4.1 Celsius.

In the case of `FC(F)(F)Oc1cccc(-c2cnc3ccc(NC4CCOCC4)nn23)c1`, where the note is “NaCl 150 mM”, the Tm shift is 5.78 Celsius.

As to `CCC(CO)Nc1ccc2ncc(-c3ccc(O)cc3)n2n1` (configuration not stated), the Tm shift (NaCl 150 mM) was 4.74 Celsius.

Regarding `O=c1c(-c2ccc(O)cc2)coc2cc(O)ccc12`, the Tm shift (NaCl 150 mM) was 3.3 Celsius.

In the case of `N=C(N)SCCCn1cc(C2=C(c3c[nH]c4ccccc34)C(=O)NC2=O)c2ccccc21`, the Tm shift (NaCl 150 mM) is 5.64 Celsius.

`O=C1Nc2ccccc2/C1=C\c1c(Cl)[nH]c2ccccc12`: the Tm shift (NaCl 150 mM) is 3.4 Celsius.

For the molecule `CC(C)[C@@H](CO)Nc1ccc2ncc(-c3cccc(C(F)(F)F)c3)n2n1`, the Tm shift (NaCl 150 mM) was 4.39 Celsius.

For the molecule `O=C1C(=O)C(c2cccc(O)c2)Oc2ccccc21` (configuration not stated), the Tm shift (NaCl 150 mM) is 4.5 Celsius.

Regarding `O=c1c(O)c(-c2cc(O)c(O)c(O)c2)oc2cc(O)cc(O)c12`, the Tm shift (NaCl 100 mM) is 4.74 Celsius.

Regarding `O=C1NC(=O)c2c1c1c3ccccc3n3c1c1c2c2ccccc2n1[C@@H]1CCC3O1`, for the setting “NaCl 100 mM”, the Tm shift was 11.1 Celsius.

Consider `O=C1NCc2c1c1c3ccccc3[nH]c1c1[nH]c3ccccc3c21`, for which the Tm shift (NaCl 150 mM) was 5.2 Celsius.

Turning to `NCCNc1ncc(C(N)=O)c(Nc2cccc(C(F)(F)F)c2)n1`, the Tm shift (NaCl 150 mM) was 5.8 Celsius.

Consider `COc1c(C=O)c(O)cc2c1C(=O)c1ccccc1C2=O`, for which the Tm shift (NaCl 150 mM) was 3.3 Celsius.

Take `O=C1C(=O)C(c2cc(O)c(O)c(O)c2)Oc2cc(O)cc(O)c21` (configuration not stated): the Tm shift (NaCl 100 mM) was 4.13 Celsius.

Turning to `Cc1c(O)cc(O)c2c1OC(c1ccc(O)c(O)c1)C(=O)C2=O` (configuration not stated), the Tm shift (NaCl 150 mM) was 4.1 Celsius.

For `O=C1C(=O)C(c2ccc(O)cc2)Oc2cc(O)cc(O)c21` (configuration not stated), the Tm shift (NaCl 150 mM) was 5.62 Celsius.

Turning to `CC(O)(O)C1(O)C[C@@H]2O[C@@]1(C)n1c3ccccc3c3c4c(c5c6ccccc6n2c5c31)C(=O)NC4` (some centres not stated), the Tm shift (NaCl 150 mM) was 3.79 Celsius.

For the molecule `O=C1Nc2ccc(I)cc2/C1=C/c1cc(Br)c(O)c(Br)c1`, the Tm shift (NaCl 150 mM) is 10.2 Celsius.

As for `O=c1oc2cc(O)ccc2c2oc3cc(O)ccc3c12`, the Tm shift (NaCl 150 mM) was 4.4 Celsius.

Take `O=C1NC(=O)c2c1c1c3ccccc3[nH]c1c1[nH]c3cc(Br)ccc3c21`: where the note is “NaCl 100 mM”, the Tm shift was 6.31 Celsius.

In the case of `O=c1c(-c2ccc(O)cc2)coc2cc(O)cc(O)c12`, the Tm shift (NaCl 150 mM) is 3.3 Celsius.

With `CCC(CO)Nc1ccc2ncc(-c3ccc(F)c(Cl)c3)n2n1` (configuration not stated), the Tm shift (NaCl 150 mM) is 5.54 Celsius.

On to `O=c1c(O)c(-c2ccc(O)cc2)oc2cc(O)cc(O)c12`, for which, under “NaCl 150 mM”, the Tm shift was 5.81 Celsius.

Regarding `O=C1NC(=O)C(c2c[nH]c3ccccc23)=C1c1c[nH]c2ccccc12`, under “NaCl 150 mM”, the Tm shift is 4.02 Celsius.

Take `CC(C)[C@@H](CO)Nc1ccc2ncc(-c3cccc(OC(F)(F)F)c3)n2n1`: the Tm shift (NaCl 150 mM) was 4.06 Celsius.

With `O=C1C(=O)C(c2ccc(O)cc2O)Oc2cc(O)cc(O)c21` (configuration not stated), the Tm shift (NaCl 150 mM) is 6.2 Celsius.

On to `CC(C)[C@@H](CO)Nc1ccc2ncc(-c3cccc(Cl)c3)n2n1`, for which the Tm shift (NaCl 150 mM) was 4.69 Celsius.

As for `CCn1cnc2c(Nc3cccc(Cl)c3)nc(N[C@@H]3CCCC[C@@H]3N)nc21`, the Tm shift (NaCl 150 mM) was 5.45 Celsius.

With `Fc1cccc(-c2cnc3ccc(NC4CCOCC4)nn23)c1`, under “NaCl 150 mM”, the Tm shift is 3.17 Celsius.

`Cc1c2ccncc2c(C)c2c1[nH]c1ccccc12`: under “NaCl 150 mM”, the Tm shift was 4.8 Celsius.

Turning to `COc1cc(C2Oc3cc(O)cc(O)c3C(=O)C2=O)ccc1O` (configuration not stated), the Tm shift (NaCl 150 mM) was 7.24 Celsius.

On to `CC(C)(C)c1nc2c3cc[nH]c(=O)c3c3cc(F)ccc3c2[nH]1`, for which, where the note is “NaCl 150 mM”, the Tm shift was 5.1 Celsius.

`CCN1/C(=C/C(C)=O)Sc2ccc(OC)cc21`: the Tm shift (NaCl 150 mM) is 3.1 Celsius.

With `CCC(CO)Nc1ccc2ncc(-c3ccc(C(=O)O)cc3)n2n1` (configuration not stated), the Tm shift (NaCl 150 mM) is 4.94 Celsius.

For the molecule `CN(C)CCCn1cc(C2=C(c3c[nH]c4ccccc34)C(=O)NC2=O)c2ccccc21`, the Tm shift was 4.21 Celsius (NaCl 100 mM) and 6.1 Celsius (NaCl 150 mM).

`COc1cc(/C=C/C(=O)CC(=O)/C=C/c2ccc(O)c(OC)c2)ccc1O`: the Tm shift (NaCl 150 mM) was 4.3 Celsius.

Regarding `CCC(CO)Nc1ccc2ncc(-c3cccc(C(C)=O)c3)n2n1` (configuration not stated), the Tm shift (NaCl 150 mM) is 4.59 Celsius.

Turning to `Clc1cccc(Nc2ccn3ncc(-c4ccsc4)c3n2)c1`, under “NaCl 100 mM”, the Tm shift is 3.45 Celsius.

Regarding `O=C1C(=O)C(c2ccccc2)Oc2ccc(O)cc21` (configuration not stated), the Tm shift (NaCl 150 mM) is 3.1 Celsius.

In the case of `CC(=O)c1cccc(-c2cnc3ccc(NCC4CC4)nn23)c1`, the Tm shift (NaCl 100 mM) was 4.29 Celsius.

Take `Fc1ccc(CNc2ccc3ncc(-c4ccco4)n3n2)cc1`: the Tm shift (NaCl 100 mM) was 3.36 Celsius.

In the case of `Clc1cccc(-c2cnc3ccc(NC4CCOCC4)nn23)c1`, the Tm shift (NaCl 100 mM) is 5.64 Celsius.

Regarding `O=c1cc(-c2ccc(O)c(O)c2)oc2cc(O)cc(O)c12`, for the setting “NaCl 150 mM”, the Tm shift was 4.14 Celsius.

With `O=c1c(O)c(-c2ccc(O)c(O)c2)oc2cc(O)ccc12`, under “NaCl 150 mM”, the Tm shift was 6.11 Celsius.

`Oc1cc(O)c2c(c1)O[C@H](c1ccc(O)c(O)c1)[C@@H](O)C2`: the Tm shift (NaCl 150 mM) was 3.2 Celsius.

Take `O=c1c(O)c(-c2ccc(O)c(O)c2)oc2cc(O)cc(O)c12`: the Tm shift (NaCl 150 mM) is 8.58 Celsius and 7.16 Celsius.

Turning to `Brc1c(Br)c(Br)c2n[nH]nc2c1Br`, under “NaCl 150 mM”, the Tm shift is 4.25 Celsius.

On to `Clc1cccc(-c2cnc3ccc(NCCc4ccccn4)nn23)c1`, for which the Tm shift (NaCl 100 mM) is 3.46 Celsius.

As to `N#C/C(=C1\Nc2ccccc2S1)c1ccnc(NCCc2cccnc2)n1`, the Tm shift (NaCl 150 mM) is 7.4 Celsius.

As for `COC(=O)c1cnc2oc3ccc(O)cc3c2c1-c1ccccc1`, where the note is “NaCl 150 mM”, the Tm shift is 6.25 Celsius.

Regarding `NC1=N/C(=C2/CCNC(=O)c3[nH]c(Br)cc32)C(=O)N1`, the Tm shift reads like this: (NaCl 100 mM) 3.73 Celsius; (NaCl 150 mM) 3.7 Celsius.

`Cn1cc(C2=C(c3c4n(c5ccccc35)CCC(CN)C4)C(=O)NC2=O)c2ccccc21` (configuration not stated): the Tm shift (NaCl 150 mM) is 3.6 Celsius.

Take `CC1N=C2SC=CN2C(=O)C1CCN1CCC(=C(c2ccccc2)c2ccc(F)cc2)CC1` (configuration not stated): under “NaCl 150 mM”, the Tm shift is 4.3 Celsius and 3.8 Celsius.

Turning to `Cc1cc(O)c2c(c1)C(=O)c1cc(O)cc(O)c1C2=O`, the Tm shift (NaCl 150 mM) was 4.2 Celsius.

`CCC(CO)Nc1ccc2ncc(-c3cccc(OC(F)(F)F)c3)n2n1` (configuration not stated): under “NaCl 150 mM”, the Tm shift was 5.92 Celsius.

As to `O=C1c2ccccc2-c2n[nH]c3cccc1c23`, the Tm shift (NaCl 150 mM) was 4.6 Celsius.

`O=c1cc(-c2ccc(O)cc2)oc2cc(O)cc(O)c12`: the Tm shift (NaCl 150 mM) is 3.8 Celsius.
